# “Also recorded” adds a separate entry of the source. Like-named read-outs stand apart in the source and are kept apart here.
# Legend:
# [1] = system: S. typhimurium ATCC 14028; experiment: Exposure of cells and plating on non-selective (TSA) and selective (BSA) agar (viability, injury, toxicity); type: cell-based, Salmonella enterica; settings: exposure 0 to 15 min, 15 μL MIL
# Protocol: To examine whether exposure time to the Ni(II) MIL affected cell viability, MIL-based whole-cell extraction was performed using the Ni(II) MIL, and cell-enriched back-extraction media were enumerated at 0, 5, 10 and 15 min on both TSA and BSA. To evaluate toxicity of the [EMIM^+][SCN^−] IL, one milliliter of diluted S. typhimurium ATCC 14028 cell suspension was added to a 4-mL screw cap glass vial. A 5% (vol/vol) or 50% (vol/vol) aqueous solution of 1-ethyl-3-methylimidazolium thiocyanate (“[EMIM^+][SCN^−]”) (IoLiTec, Tuscaloosa, AL, USA) was added and mixed by vortexing for 30 s. Aliquots were enumerated at 0, 5, 10 and 15 min using TSA and BSA.
# One milliliter of diluted S. typhimurium ATCC 14028 cell suspension was added to a 4-mL screw cap glass vial. Fifteen microliters of either the Dy(III) MIL or 2-10 μL of 100 mM DyCh solution or 10 mg of the ammonium tetra(hexafluoroaceto)dysprosium salt (15) ([NH4^+][Dy(hfacac)4^−]) (“Dy(III) ammonium salt”) was added and dispersed by vortex agitation for 30 s. Aliquots of the Dy(III) MIL- or Dy(III) ammonium salt-exposed cell suspension were enumerated using square TSA or BSA plates (BD).
# Because culture-based methods depend on sample preparation steps that preserve bacterial viability, potential deleterious cytotoxic effects imparted by MIL extractants must be considered. To begin our further study of MIL-bacterial interactions, we selected S. typhimurium ATCC 14028 as a model gram-negative pathogen and the Ni(II) MIL as extractant. Briefly, a 1 mL aliquot of TSB was inoculated with 1×10^5 CFU mL^−1 of bacteria and spiked with 15 μL of the Ni(II) MIL, and the general schematic for MIL-based extraction and recovery followed as shown in FIG. 7B. After extraction, 10 μL aliquots of the back-extraction solution were enumerated at 0, 5, 10 and 15 min using TSA and BSA. Average CFU counts were compared to a standard that was not exposed to the Ni(II) MIL. […] To better understand the data in FIG. 8, statistical analyses of Ni(II) MIL capture precision and CFU count variation as a function of MIL exposure time were performed. Variation in MIL capture may stem from inherent randomness of MIL dispersion and coalescence behaviors.
# The effects of 5% or 50% (vol/vol) aqueous solutions of the [EMIM^+][SCN^−] IL on the viability of the cells were also evaluated. Average CFU counts were compared to a standard not exposed to [EMIM^+][SCN^−]. In our hands, when S. typhimurium was exposed to 50% (vol/vol) solutions of [EMIM^+][SCN^−], no recovery was observed on either TSA or BSA after 5 min of exposure.
# To gain further insight into this phenomenon, the effect of free elemental dysprosium was evaluated by subjecting the cells to 0.1 mM and 1.0 mM solutions of DyCl3. The cells were exposed to the metal salt solutions for 30 s and subsequently plated on selective and non-selective media.
# While the metal did show cytotoxicity, it cannot be completely responsible for the Dy(III) MIL's effect on the cells, as no flocculation was seen and growth was still observed. Since both the Ni(II) and the Dy(III) MILs contain identical cations ([P6,6,6,14^+]), the role of the anion structure was evaluated. The anion of the Dy(III) MIL contains one additional hexafluoroacetylacetonate ligand than the Ni(II) MIL (FIG. 7), making the coordination geometry of the two complexes different. To test the effects of the anion structure, cells were subjected to 10 mg of the Dy(III) ammonium salt. After a 30 second vortex, similar flocculation was observed as when the cells were exposed to the native Dy(III) MIL.
# [2] = system: Y. enterocolitica ATCC 9160; experiment: MIL-based whole-cell extraction; set-up: species or system Yersinia enterocolitica; settings: EF determined using Tryptic Soy Agar
# Protocol: (§1) A universal schematic for MIL-based cell extraction is depicted in FIG. 7B. A 1 mL volume of diluted cell suspension was added to a flat-bottomed 4-mL screw cap glass vial. Fifteen microliters of either the Ni(II) or Dy(III) MIL was added and dispersed into microdroplets by vortex agitation for 30 s. The aqueous phase was decanted following dispersive extraction, and the MIL was subjected to a brief wash step using 1 mL of nuclease-free water (Integrated DNA Technologies, Coralville, IA, USA) to ensure adequate removal of loosely or incidentally bound cells. […]
# (§2) Following back-extraction, aliquots of the cell-enriched back-extraction medium were serially diluted in 0.1% peptone water and a 10 μL aliquot of each dilution was applied to a separate lane on square plates containing an appropriate agar medium. […] Colonies were counted and colony forming units (CFU) were determined. The enrichment factor (EF) for MIL-based extraction was calculated using Equation 1, where CMIL represents the concentration of bacteria in suspension following extraction using the MIL and CS is the initial concentration of bacteria in the sample.
# [3] = system: Y. enterocolitica ATCC 2371; experiment: MIL-based whole-cell extraction; set-up: species or system Yersinia enterocolitica; settings: EF determined using Tryptic Soy Agar
# Protocol: as §1, §2
# [4] = system: Salmonella enterica subsp. enterica ser. Typhimurium ATCC 14028; type: cell-based; set-up: key to Relative Affinity for MIL: +++++: higher losses during wash step are due to lower cellular affinity for the MIL; ++++: higher losses during wash step are due to lower cellular affinity for the MIL; +++: higher losses during wash step are due to lower cellular affinity for the MIL; ++: higher losses during wash step are due to lower cellular affinity for the MIL; +: higher losses during wash step are due to lower cellular affinity for the MIL
# Protocol: A universal schematic for MIL-based cell extraction is depicted in FIG. 7B. A 1 mL volume of diluted cell suspension was added to a flat-bottomed 4-mL screw cap glass vial. Fifteen microliters of either the Ni(II) or Dy(III) MIL was added and dispersed into microdroplets by vortex agitation for 30 s. The aqueous phase was decanted following dispersive extraction, and the MIL was subjected to a brief wash step using 1 mL of nuclease-free water (Integrated DNA Technologies, Coralville, IA, USA) to ensure adequate removal of loosely or incidentally bound cells. After washing, release of viable cells from the MIL extraction phase was carried out using a “back-extraction” step accomplished through addition of 1 mL of an ionically-rich nutritive medium comprised of 20 g L^−1 tryptone and 10 g L^−1 NaCl, followed by a 120 s vortex step. After back-extraction, aliquots of the cell-enriched back-extraction medium were enumerated using the track dilution method using 100×100 mm square, gridded TSA, BSA, CA or VRBGA plates.
# Following back-extraction, aliquots of the cell-enriched back-extraction medium were serially diluted in 0.1% peptone water and a 10 μL aliquot of each dilution was applied to a separate lane on square plates containing an appropriate agar medium. The plates were then tilted at an approximately 80° angle for 15 min to allow the droplets to travel toward the opposite end of the plate. The plates were incubated for 24 h at 37° C. (TSA, VRBGA), for 48 h at 37° C. (BSA) or for 24 h at 37° C. (CA). Colonies were counted and colony forming units (CFU) were determined. The enrichment factor (EF) for MIL-based extraction was calculated using Equation 1, where CMIL represents the concentration of bacteria in suspension following extraction using the MIL and CS is the initial concentration of bacteria in the sample.
# Because culture-based methods depend on sample preparation steps that preserve bacterial viability, potential deleterious cytotoxic effects imparted by MIL extractants must be considered. To begin our further study of MIL-bacterial interactions, we selected S. typhimurium ATCC 14028 as a model gram-negative pathogen and the Ni(II) MIL as extractant.
# [5] = Table 3, 1×10^5 CFU mL^−1 in TSB, 15 μL MIL
# [6] = Table 4, 1×10^6 CFU mL^−1 in TSB, 15 μL MIL
# [7] = average over exposure times 0-15 min (n=4)
# [8] = exposure time 0 min, 1×10^5 CFU mL^−1 in TSB, 15 μL MIL
smiles,measurement,setting,value
"CCCCCCCCCCCCCC[P+](CCCCCC)(CCCCCC)CCCCCC.O=C([CH-]C(=O)C(F)(F)F)C(F)(F)F.O=C([CH-]C(=O)C(F)(F)F)C(F)(F)F.O=C([CH-]C(=O)C(F)(F)F)C(F)(F)F.[Ni+2] [Ni(II) MIL, [P66614^+][Ni(hfacac)3^−]]",injury to S. typhimurium: average CFU counts on TSA and BSA,[1],did not cause detectable injury; also recorded: appeared to be similar
same,Enrichment Factor,[2],5
same,Enrichment Factor,[3],5
same,Relative Affinity for MIL,[4],++++
same,enrichment factors,"[4]; Example 2, 2×T, 1×NaCl back-extraction medium",approximately 12
same,Enrichment Factor (BSA),[4]; [5],14
same,Enrichment Factor (TSA),[4]; [5],10
same,Enrichment Factor (BSA),[4]; [6],6
same,Enrichment Factor (TSA),[4]; [6],8
same,average EF value (BSA),[4]; [7],8.2±1.0
same,average EF value (TSA),[4]; [7],7.2±0.6
same,Percent-Loss,[4]; cells lost to wash solution,53 ± 3%
same,Enrichment Factor (BSA),[4]; [8],7
same,Enrichment Factor (TSA),[4]; [8],8
same,Enrichment Factor (BSA),[4]; exposure time 5 min,8
same,Enrichment Factor (TSA),[4]; exposure time 5 min,7
same,Enrichment Factor (BSA),[4]; exposure time 10 min,8
same,Enrichment Factor (TSA),[4]; exposure time 10 min,6
same,Enrichment Factor (BSA),[4]; exposure time 15 min,9
same,Enrichment Factor (TSA),[4]; exposure time 15 min,8

# From patent publication US12416052B2, “Capturing, concentrating, and detecting microbes in a sample using magnetic ionic liquids and recombinase polymerase amplification” (priority 2019, dated 2025)
